Laboratory results from paper PMC11995724, “Antibiotic target discovery by integrated phenotypic and activity-based profiling of electrophilic fragments” (Cell chemical biology, 2025).

Assay: in vitro
Details: human, hek293t cells

## C=CC(=O)N1CCOC(Cn2cncn2)C1 (stereo not shown) [1-F20, 1-{2-[(1H-1,2,4-triazol-1-yl)methyl]morpholin-4-yl}prop-2-en-1-one]
  viability at 48 h, 25 µM: 85.3%

## C=CC(=O)Nc1sc2c(c1C(N)=O)CCCCC2 [1-F21, 2-(prop-2-enamido)-4H,5H,6H,7H,8H-cyclohepta[b]thiophene-3-carboxamide]
  viability at 48 h, 25 µM: 113%

## C=CC(=O)NCC1(C)CCC(C)(C)CC1 [1-F22, N-[(1,4,4-trimethylcyclohexyl)methyl]prop-2-enamide]
  viability at 48 h, 25 µM: 83.2%

## C=CC(=O)N1CSCC1C(=O)N(C)C (stereo not shown) [1-G03, N,N-dimethyl-3-(prop-2-enoyl)-1,3-thiazolidine-4-carboxamide]
  viability at 48 h, 25 µM: 75.4%

## C=CC(=O)Nc1ccccc1Sc1nncs1 [1-G04, N-[2-(1,3,4-thiadiazol-2-ylsulfanyl)phenyl]prop-2-enamide]
  viability at 48 h, 25 µM: 32.3%

## C=CC(=O)NC(c1ccccc1)C1CCC1 (stereo not shown) [1-G05, N-[cyclobutyl(phenyl)methyl]prop-2-enamide]
  viability at 48 h, 25 µM: 76.5%

## C=CC(=O)Nc1ccc(O)c(C(=O)O)c1 [1-G06, 2-hydroxy-5-(prop-2-enamido)benzoic acid]
  viability at 48 h, 25 µM: 70.3%

## C=CC(=O)NCc1nncn1-c1ccccc1 [1-G07, N-[(4-phenyl-4H-1,2,4-triazol-3-yl)methyl]prop-2-enamide]
  viability at 48 h, 25 µM: 77.3%

## C=CC(=O)N1CCCC1 [1-G08, 1-(pyrrolidin-1-yl)prop-2-en-1-one]
  viability at 48 h, 25 µM: 70.2%

## C=CC(=O)N(Cc1cn(C2CCC2)nn1)c1ccc(F)cc1 [1-G09, N-[(1-cyclobutyl-1H-1,2,3-triazol-4-yl)methyl]-N-(4-fluorophenyl)prop-2-enamide]
  viability at 48 h, 25 µM: 37.6%

## C=CC(=O)Nc1cccc2ccccc12 [1-G10, N-(naphthalen-1-yl)prop-2-enamide]
  viability at 48 h, 25 µM: 53.4%

## C=CC(=O)Nc1nc2cc(C(F)(F)F)ccc2n1Cc1ccco1 [1-G11, N-{1-[(furan-2-yl)methyl]-5-(trifluoromethyl)-1H-1,3-benzodiazol-2-yl}prop-2-enamide]
  viability at 48 h, 25 µM: 72.5%

## C=CC(=O)N1CCCC(C(=O)O)C1 (stereo not shown) [1-G12, 1-(prop-2-enoyl)piperidine-3-carboxylic acid]
  viability at 48 h, 25 µM: 60.4%

## C=CC(=O)Nc1ccc2c(c1)N(C)CC2 [1-G13, N-(1-methyl-2,3-dihydro-1H-indol-6-yl)prop-2-enamide]
  viability at 48 h, 25 µM: 67.7%

## C=CC(=O)Nc1cccc(C(=O)C(F)F)c1 [1-G14, N-[3-(2,2-difluoroacetyl)phenyl]prop-2-enamide]
  viability at 48 h, 25 µM: 50.4%

## C=CC(=O)N1CCN(S(C)(=O)=O)[C@H](C)C1 [1-G15, 1-[(3R)-4-methanesulfonyl-3-methylpiperazin-1-yl]prop-2-en-1-one]
  viability at 48 h, 25 µM: 101%

## C=CC(=O)NCC1(C)CCS(=O)(=O)CC1 [1-G16, N-[(4-methyl-1,1-dioxo-1lambda6-thian-4-yl)methyl]prop-2-enamide]
  viability at 48 h, 25 µM: 83.1%

## C=CC(=O)Nc1cnc(C2CCCC2)nc1 [1-G17, N-(2-cyclopentylpyrimidin-5-yl)prop-2-enamide]
  viability at 48 h, 25 µM: 33%

## C=CC(=O)NCc1nc2c(s1)CCCC2 [1-G18, N-[(4,5,6,7-tetrahydro-1,3-benzothiazol-2-yl)methyl]prop-2-enamide]
  viability at 48 h, 25 µM: 95.8%

## C=CC(=O)Nc1cnn2cc(C)cnc12 [1-G19, N-{6-methylpyrazolo[1,5-a]pyrimidin-3-yl}prop-2-enamide]
  viability at 48 h, 25 µM: 96.4%

## C=CC(=O)Nc1ccc2c(c1)OCCCO2 [1-G20, N-(3,4-dihydro-2H-1,5-benzodioxepin-7-yl)prop-2-enamide]
  viability at 48 h, 25 µM: 115%

## C=CC(=O)NCc1cn(C)c2ccccc12 [1-G21, N-[(1-methyl-1H-indol-3-yl)methyl]prop-2-enamide]
  viability at 48 h, 25 µM: 107%

## C=CC(=O)NC1CCc2nc(CC)nn2C1 (stereo not shown) [1-G22, N-{2-ethyl-5H,6H,7H,8H-[1,2,4]triazolo[1,5-a]pyridin-6-yl}prop-2-enamide]
  viability at 48 h, 25 µM: 147%

## C=CC(=O)NC(C)(C)c1nc(-c2ccccc2F)c(C)s1 [1-H04, N-{2-[4-(2-fluorophenyl)-5-methyl-1,3-thiazol-2-yl]propan-2-yl}prop-2-enamide]
  viability at 48 h, 25 µM: 73.5%

## C=CC(=O)NCC(=O)N1CCCO1 [1-H05, N-[2-(1,2-oxazolidin-2-yl)-2-oxoethyl]prop-2-enamide]
  viability at 48 h, 25 µM: 98.5%

## C=CC(=O)N1CCC(C2CCOC2)C1 (stereo not shown) [1-H06, 1-[3-(oxolan-3-yl)pyrrolidin-1-yl]prop-2-en-1-one]
  viability at 48 h, 25 µM: 70.3%

## C=CC(=O)NC[C@H]1CCCN1S(C)(=O)=O [1-H07, N-{[(2R)-1-methanesulfonylpyrrolidin-2-yl]methyl}prop-2-enamide]
  viability at 48 h, 25 µM: 99.1%

## C=CC(=O)NCC1CCOC1 (stereo not shown) [1-H08, N-[(oxolan-3-yl)methyl]prop-2-enamide]
  viability at 48 h, 25 µM: 69.4%

## C=CC(=O)N(Cc1cn(C)nc1CC)C1CCCCCC1 [1-H09, N-cycloheptyl-N-[(3-ethyl-1-methyl-1H-pyrazol-4-yl)methyl]prop-2-enamide]
  viability at 48 h, 25 µM: 84.9%

## C=CC(=O)NC(CN1CCCS1(=O)=O)C1CC1 (stereo not shown) [1-H10, N-[1-cyclopropyl-2-(1,1-dioxo-1lambda6,2-thiazolidin-2-yl)ethyl]prop-2-enamide]
  viability at 48 h, 25 µM: 100%

## C=CC(=O)N(Cc1cccc2cccnc12)C1CCCN(CC)C1 (stereo not shown) [1-H11, N-(1-ethylpiperidin-3-yl)-N-[(quinolin-8-yl)methyl]prop-2-enamide]
  viability at 48 h, 25 µM: 55.3%

## C=CC(=O)N1CCN(C(=O)c2ccc(OC)c(OC)c2OC)CC1 [1-H12, 1-[4-(2,3,4-trimethoxybenzoyl)piperazin-1-yl]prop-2-en-1-one]
  viability at 48 h, 25 µM: 80%

## C=CC(=O)N(Cc1noc2c1CCCC2)CC1CCCC1 [1-H13, N-(cyclopentylmethyl)-N-[(4,5,6,7-tetrahydro-1,2-benzoxazol-3-yl)methyl]prop-2-enamide]
  viability at 48 h, 25 µM: 113%

## C=CC(=O)NCC(C)Cn1nccc1C (stereo not shown) [1-H14, N-[2-methyl-3-(5-methyl-1H-pyrazol-1-yl)propyl]prop-2-enamide]
  viability at 48 h, 25 µM: 87.8%

## C=CC(=O)N(Cc1cc2ccccn2n1)CC1(O)CCCCC1 [1-H15, N-[(1-hydroxycyclohexyl)methyl]-N-({pyrazolo[1,5-a]pyridin-2-yl}methyl)prop-2-enamide]
  viability at 48 h, 25 µM: 102%

## C=CC(=O)Nc1cc(OC)cc(S(C)(=O)=O)c1 [1-H16, N-(3-methanesulfonyl-5-methoxyphenyl)prop-2-enamide]
  viability at 48 h, 25 µM: 84.1%

## C=CC(=O)NC1COC(C)C1 (stereo not shown) [1-H17, N-(5-methyloxolan-3-yl)prop-2-enamide]
  viability at 48 h, 25 µM: 106%

## C=CC(=O)N1CCN(CC2CCOC2)CC1 (stereo not shown) [1-H18, 1-{4-[(oxolan-3-yl)methyl]piperazin-1-yl}prop-2-en-1-one]
  viability at 48 h, 25 µM: 49.6%

## C=CC(=O)NCc1nnc2ccccn12 [1-H19, N-({[1,2,4]triazolo[4,3-a]pyridin-3-yl}methyl)prop-2-enamide]
  viability at 48 h, 25 µM: 182%

## C=CC(=O)NCc1ccnn1C [1-H20, N-[(1-methyl-1H-pyrazol-5-yl)methyl]prop-2-enamide]
  viability at 48 h, 25 µM: 58%

## C=CC(=O)NC1Cc2ccccc2C1=O (stereo not shown) [1-H21, N-(1-oxo-2,3-dihydro-1H-inden-2-yl)prop-2-enamide]
  viability at 48 h, 25 µM: 156%

## C=CC(=O)NCc1cccc(OC)n1 [1-H22, N-[(6-methoxypyridin-2-yl)methyl]prop-2-enamide]
  viability at 48 h, 25 µM: 79.2%

## C=CC(=O)NC(=O)NCc1ccccc1 [1-I04, 1-benzyl-3-(prop-2-enoyl)urea]
  viability at 48 h, 25 µM: 0.515%

## C=CC(=O)N1CCC(C(=O)NCc2ccccc2)CC1 [1-I05, N-benzyl-1-(prop-2-enoyl)piperidine-4-carboxamide]
  viability at 48 h, 25 µM: 86.7%

## C=CC(=O)NCc1cscn1 [1-I07, N-[(1,3-thiazol-4-yl)methyl]prop-2-enamide]
  viability at 48 h, 25 µM: 69.5%

## C=CC(=O)N(C)CCCn1c(=O)c(C)nc2ccccc21 [1-I08, N-methyl-N-[3-(3-methyl-2-oxo-1,2-dihydroquinoxalin-1-yl)propyl]prop-2-enamide]
  viability at 48 h, 25 µM: 76.3%

## C=CC(=O)Nc1conc1-c1ccccc1 [1-I09, N-(3-phenyl-1,2-oxazol-4-yl)prop-2-enamide]
  viability at 48 h, 25 µM: 59.1%

## C=CC(=O)Nc1ccc(Cl)cc1F [1-I10, N-(4-chloro-2-fluorophenyl)prop-2-enamide]
  viability at 48 h, 25 µM: 47.1%

## C=CC(=O)NCc1cc(-c2cccc(OC)c2)no1 [1-I11, N-{[3-(3-methoxyphenyl)-1,2-oxazol-5-yl]methyl}prop-2-enamide]
  viability at 48 h, 25 µM: 76.7%

## C=CC(=O)NCc1nc2ccccc2s1 [1-I12, N-[(1,3-benzothiazol-2-yl)methyl]prop-2-enamide]
  viability at 48 h, 25 µM: 35.8%

## C=CC(=O)NCC(c1c(F)cccc1F)N1CC(C)OC(C)C1 (stereo not shown) [1-I13, N-[2-(2,6-difluorophenyl)-2-(2,6-dimethylmorpholin-4-yl)ethyl]prop-2-enamide]
  viability at 48 h, 25 µM: 72.5%

## C=CC(=O)NCc1ccnc(N2CCSCC2)c1 [1-I14, N-{[2-(thiomorpholin-4-yl)pyridin-4-yl]methyl}prop-2-enamide]
  viability at 48 h, 25 µM: 22.1%

## C=CC(=O)N[C@@H](CC(N)=O)c1cccc(Cl)c1 [1-I15, N-[(1S)-2-carbamoyl-1-(3-chlorophenyl)ethyl]prop-2-enamide]
  viability at 48 h, 25 µM: 81.6%

## C=CC(=O)Nc1ccc(C(C)CC(N)=O)cc1 (stereo not shown) [1-I16, 3-[4-(prop-2-enamido)phenyl]butanamide]
  viability at 48 h, 25 µM: 72.6%

## C=CC(=O)Nc1ccc(-n2cnnn2)c(F)c1 [1-I17, N-[3-fluoro-4-(1H-1,2,3,4-tetrazol-1-yl)phenyl]prop-2-enamide]
  viability at 48 h, 25 µM: 39.9%

## C=CC(=O)NCc1cccc(-c2nnc[nH]2)c1 [1-I18, N-{[3-(4H-1,2,4-triazol-3-yl)phenyl]methyl}prop-2-enamide]
  viability at 48 h, 25 µM: 172%

## C=CC(=O)Nc1cc(CC(C)(C)C)no1 [1-I19, N-[3-(2,2-dimethylpropyl)-1,2-oxazol-5-yl]prop-2-enamide]
  viability at 48 h, 25 µM: 1.69%

## C=CC(=O)N1CCC(C(=O)Nc2cc(OCC)ccc2Cl)CC1 [1-I20, N-(2-chloro-5-ethoxyphenyl)-1-(prop-2-enoyl)piperidine-4-carboxamide]
  viability at 48 h, 25 µM: 122%
